Patent US7026137B2, “Hepatitis” (Chang Gung University, priority 2003, dated 2006)

What was measured:
hepatitis C virus (HCV) = experiment: HCV replication (HCV-RNA level by RT-PCR) in human liver slices from hepatitis C patients; format: cell-based; conditions: for suppression of HCV replication in liver slices: 3 days
Procedure: Liver slices were prepared from liver tissues of the patients. To obtain the livers tissues, biopsy was performed using Bard Biopty-Cut biopsy needles (C. R. Bard, Inc. Covington, Ga.) with a diameter of 1.2 mm (18 gauge). Two equal-sized slices, 1 mm in thickness, were separated from each tissue. The remaining portion (main portion) of each tissue was subjected to pathological examination. The liver slices were incubated in a 24-well culture plate containing 2 ml of minimal essential medium-20% fetal bovine serum and fed with fresh medium daily.
To evaluate whether it suppresses the authentic HCV replication in liver slices, the liver slices from patients S10-1 to S10-6 and S00-1 to S00-6 were incubated with 0, 10, and 100 μg/ml of sodium stibogluconate (Wuhan Shengmao Corp., Hubei, China), respectively, 24 hrs after the slices had been cultured in vitro. The slices from patient S10-5 served as a negative control. Three days later (i.e., 96 hr after the slices were cultured), the level of HCV RNA in each slice was measured.
To detect the HCV-RNA level, one step RT-PCR (not nested) was performed in the manner described in Yeh et al., J. Gen. Virol. 78 (1997) 2761–2770. As a control, β-actin mRNA was measured simultaneously. 20 PCR cycles were performed, in which the amounts of the PCR products had not yet reached to a plateau. The primers used were described in Yeh et al., Oncogene 19 (2000) 5213–5220. […] Methods 65 (1997) 219–226. HCV genotypes were determined using Inno-Lipa HCV II kit (Innogenetics, Zwijndrecht, Belgium).
The responsiveness of patients to Interferon-alpha, a drug currently being used to treat hepatitis C, was evaluated using liver slices. Liver slices prepared from patients INF-1 to 6 were incubated with 5000 U/ml of interferon-alpha2b (Schering-Plough Corp., Kenilworth, N.J. Slices from patient IFN-6, who was infected by hepatitis B virus, were used as negative controls.
The slices form patient […] served as negative controls.

[1] = test system: HCV in 293EBNA-Sip-L cells; experiment: HCV replication in HCV-infected 293EBNA-Sip-L cell line (intracellular HCV-RNA, nested RT-PCR); format: cell-based, hepatitis C virus; conditions: day 2 to day 7 after infection, RT-PCR sensitivity <10^2 copy per 10^5 cells, untreated cells 2.31×10^5 per 10^5 cells
Procedure: To verify the ability of sodium stibogluconate to inhibit HCV replication, a 293EBNA-Sip-L cell line was used. This cell line, permissive for HCV infection and replication, had been established by expressing a cellular factor, Sip-L, in 293EBNA cells (Yeh et al., J. Virol. 75 (2001) 11017–11024). This cell line was maintained in a Dulbecco's modified Eagle's medium containing 10% fetal bovine serum, 250 μg/ml G418, and 150 μg/ml hygromycin B. The cells were infected with HCV. Briefly, cells in a 60-mm-diameter petri dish were incubated with a medium containing 5 μl of HCV-positive serum (10^7 copies of HCV-RNA/ml) for 12 hr. The cells were then incubated in a fresh medium without the serum.
At the second day after the HCV infection, 293EBNA-Sip-L cells were incubated with media containing 0, 1, 10, and 100 μg/ml of sodium stibogluconate, respectively. At the seventh day, the cells were harvested to determine the intracellular level of HCV-RNA. The cells were trypsinized and washed two times with a fresh medium by centrifugation. The supernatant of the second wash (as a contamination control) and the washed cells were collected in pairs for RNA extraction and nested RT-PCR. A digoxigenin-labeled probe was used for the subsequent Southern blot analysis. The sequences of the primers, the method for generating the probe, and the procedure for RT-PCR were described in Yeh et al., J. Virol. 75 (2001) 11017–11024. An amplified HCV fragment was cloned into pCR2.1-TOPO (Invitrogen, Carlsbad, Calif.) to generate a plasmid, pTOPO-HCV5n, which served as a positive control in Southern blot analysis. As internal controls, the levels of 18s and 28s RNAs were measured.

HCV replicon = experiment: HCV subgenomic RNA replicon system (Ava5); format: cell-based, hepatitis C virus
[2] = cited from earlier work
[3] = test system: hepatocytes in human liver slices; experiment: Viability of hepatocytes in human liver slices (intracellular AST); format: cell-based; conditions: 96 hrs after the culture; Group V liver slices; without drug 57%; no significant difference between samples
Procedure: To determine whether sodium stibogluconate or interferon-alpha 2b protects hepatocytes in human liver slices, the viability of hepatocytes in human liver slices incubated with the drugs was examined. As HCV replication causes the death of hepatocytes, intracellular aspartate aminotransferase (AST) leaks out. The intracellular level of AST therefore positively correlates with the cell viability.
Liver slices prepared from the patients in Group V were treated with sodium stibogluconate or interferon-alpha 2b in the manner described above. The AST activity in the medium was determined using a standard technique 48, 72, and 96 hrs after the slices had been cultured in vitro. The AST activities in a fresh medium and in the liver slices 96 hrs after incubation were also measured. For this purpose, the slices were homogenized using a mini-homogenizer (Pellet Pestles, Kimble Deltaware, Vineland, N.J). The percentages of AST leaked out to the medium and remained in the liver slices were calculated accordingly.

hepatitis C = conditions: cited from earlier work

Compound	suppression of HCV replication in liver slices (hepatitis C virus (HCV); 10 μg/ml, slices from patient S10-3)	suppression of HCV replication in liver slices (hepatitis C virus (HCV); 10 μg/ml, slices from patients S10-1, S10-2, S10-4 and S10-6)	suppression of HCV replication in liver slices (hepatitis C virus (HCV); 100 μg/ml, slices from patients S00-1, S00-2, S00-3 and S00-5)	suppression of HCV replication in liver slices (hepatitis C virus (HCV); 100 μg/ml, slices from patients S00-4 and S00-6)	intracellular HCV-RNA ([1]; 1 μg/ml)	intracellular HCV-RNA ([1]; 10 μg/ml)	intracellular HCV-RNA ([1]; 100 μg/ml)	suppression of replication of an HCV replicon (HCV replicon)	estimated blood concentration immediately after injection ([2]; daily dose of 20 mg/kg as used in treating kala-azar)	blood concentration needed for treating kala-azar ([2]; in vivo)	suppression of HCV-RNA levels in liver slices (hepatitis C virus (HCV); 5000 U/ml, slices from patient IFN-2)	suppression of HCV-RNA levels in liver slices (hepatitis C virus (HCV); 5000 U/ml, slices from patient IFN-5)	suppression of HCV-RNA levels in liver slices (hepatitis C virus (HCV); 5000 U/ml, slices from patients IFN-1, 3 and 4)	suppression of HCV-RNA levels in liver slices (hepatitis C virus (HCV); interferon heated to 90° C. for 10 min (inactivated) before incubation, slices from patients iIF-1 to 6)	intracellular AST level [3]	hepatitis C patients responsive to the treatment (hepatitis C)
O.O.O.O.O.O.O.O.O.O=C([O-])[C@@H]1[O][Sb]2([O-])([O][Sb]34([OH])[O][C@H]([C@H](O)CO)[C@H]([O]3)[C@H](C(=O)[O-])[O]4)[O][C@H]([C@H](O)CO)[C@@H]1[O]2.[Na+].[Na+].[Na+] [sodium stibogluconate]	not	partially suppressed	almost completely suppressed	not	none was detected	none was detected	none was detected	capable of suppressing	about 400 μg/ml	400 µg/mL						
interferon-alpha 2b											no suppression	Partial suppression	suppressed to undetectable levels	No suppression	83%	about 50%
